Laboratory results: patent US8735650B2, “Methods of modulating production of phenylpropanoid compounds in plants” (Yissum Research Development Company of the Hebrew …, priority 2007, dated 2014)

Experiments:
[1] = test system: Pap1-transgenic petunia flowers; assay: Phe feeding, volatile emission by dynamic headspace GC-MS; format: in vivo, Petunia hybrida
Protocol: (§1) Volatiles emitted from detached petunia flowers were collected using an adsorbent trap consisting of a glass tube containing 200 mg of polymer Porapak Type Q (80/100 mesh; Alltech, Deerfield, Ill.) held in place with plugs of silanized glass wool (Guterman et al., 2006). Trapped volatiles were eluted using 3 ml hexane, and 2 μg iso-butylbenzene was added per sample as an internal standard for each. To determine pool sizes of volatile compounds, limbs were ground in liquid nitrogen and extracted in hexane (4 ml g^−1 of tissue) containing 0.5 μg ml^−1 iso-butylbenzene as the internal standard. Following overnight incubation with shaking at 150 rpm, extract was centrifuged at 10,500 g for 10 min and the supernatant filtered through a 25-ml syringe with a […] sterile nylon filter. To assess whether the bound form of benzaldehyde accumulated in petunia limbs, tissue (0.6 g) was incubated with 9 ml phosphate citrate buffer pH 4.5 with or without 15 units of glucosidase mixture Novarom G (Novo Nordisk Ferment Ltd., Bagsvaerd, Denmark) at 37° C. overnight, and then transferred to −20° C. to stop enzymatic reactions. Hexane (10 ml) containing 0.5 μg ml^−1 iso-butylbenzene as an internal standard was added to each sample, and following vortexing, the upper phase was recovered.
(§2) GC-MS analysis was performed using a device composed of a Pa1 auto-sampler (CTC Analytic, Zwingen, Switzerland), a TRACE GC 2000 equipped with an Rtx-5SIL MS (Restek, i.d. 0.25 μm, 30 m×0.25 mm) fused-silica capillary column, and a TRACE DSQ quadrupole mass spectrometer (ThermoFinnigan, Hemel, UK). Helium was used as the carrier gas at a flow rate of 0.9 ml min^−1. The injection temperature was set to 250° C. (splitless mode), the interface to 280° C., and the ion source adjusted to 200° C. The analysis was performed under the following temperature program: 5 min of isothermal heating at 50° C., followed by a 5° C. min^−1 oven temperature ramp to […], and a final increase from 250 to 280° C. at 10° C. min^−1. The transfer line temperature was 280° C. The system was equilibrated for 1 min at 70° C. before injection of the next sample. Mass spectra were recorded at 2 scan s^−1 with a scanning range of 40 to 450 mass-to-charge ratio, and an electron energy of 70 eV. Compounds were tentatively identified (>95% match) based on NIST/EPA/NIH Mass Spectral Library (Data Version: NIST 05, Software Version 2.0d) using the XCALIBUR v1.3 program (ThermoFinnigan) library. Further identification of compounds was based on comparison of mass spectra and retention times with those of authentic standards (Sigma, Milwaukee, Wis.) analyzed under similar conditions.
(§3) For evaluating the affect of Phe feeding on volatile production, control and Pap1-transgenic flowers were collected at 0800 hour and 1600 hour, placed in a glass vial containing 10 ml of water with or without 5 mg L-phenylalanine (Duchefa, Haarlem, Netherlands) and headspace was collected during the day (0800-1600 hours) and night (1600-0800 hours). To assess internal pools of volatiles, control and Pap1-transgenic flowers collected at 1600 hour were placed in a glass vial containing 10 ml of water with or without L-phenylalanine and at 2300 hour volatile were extracted as above.

[2] = test system: control petunia flowers; assay: as above; format: in vivo, Petunia hybrida; settings: during the night
Protocol: as §1, §2, §3

[3] = Phe fed vs non-fed Pap1-transgenic flowers, during the day

N[C@@H](Cc1ccccc1)C(=O)O [Phe, L-phenylalanine]
volatile accumulation and emission ([1]; Pap1-transgenic flowers, Phe feeding during the night): unaffected
increase in benzaldehyde emission [1, 3]: about 7 fold
increase in methylbenzoate emission [1, 3]: ~5 fold
reduction in benzaldehyde emission [2]: 2-3 fold
reduction in methylbenzoate emission [2]: 2-3 fold
